Reference: PMC7115494 (European Journal of Medicinal Chemistry, 2012)

Tests used:
Feline herpesvirus = experiment: Antiviral activity against feline herpesvirus in CRFK cells; type: cell-based
HEL cells = experiment: Cytotoxicity in HEL cells: cell morphology; type: cell-based, human; conditions: microscopically detectable alteration of cell morphology
VZV = experiment: Antiviral activity against VZV, strains summarised in text; type: cell-based, varicella-zoster virus; conditions: for EC50: Human alphaherpesvirus 3, read-out: EC50 VZV, range over strains
HSV = experiment: Antiviral activity against HSV, strains summarised in text; type: cell-based, herpes simplex virus; conditions: for EC50: read-out: EC50 HSV, range over strains
HCMV = experiment: Antiviral activity against HCMV, strains summarised in text; type: cell-based, human cytomegalovirus; conditions: for EC50: Human betaherpesvirus 5, read-out: EC50 HCMV, range over strains
[1] = test system: herpesviruses and poxviruses; conditions: for Activity against herpesviruses and poxviruses: in vitro
[2] = test system: herpesviruses and poxviruses; conditions: EC50 in the μM range; cited from earlier work
VZV TK- strain YS/R = type: cell-based, varicella-zoster virus; conditions: HEL fibroblasts
[3] = test system: Vaccinia virus Lederle strain; experiment: microbe, parasite or virus in culture; type: cell-based
VZV TK+ strain YS = type: cell-based, varicella-zoster virus; conditions: HEL fibroblasts
VZV TK+ strain Oka = experiment: microbe, parasite or virus in culture; type: cell-based, varicella-zoster virus; conditions: Human alphaherpesvirus 3, Fibroblast, read-out: EC50 VZV TK+ strain Oka

Question: What does the source list for `CCCCCCCCCCCCCCCCOCCCOP(=O)(O)CO[C@H](CO)Cn1cnc2c(=O)[nH]c(N)nc21` [Compound 16, 3-(Hexadecyloxypropyl) ester of 9-(S)-[3-hydroxy-2-(phosphonomethoxy)propyl]guanine]?
Answer: Activity against feline herpesvirus (Feline herpesvirus; CRFK cells): inactive; Cytotoxicity in HEL cells, cell morphology, MCC (minimum cytotoxic concentration) (HEL cells): ≥1.3 μM; EC50 (VZV): 1 to 2.5 nM; EC50 (HSV): 7 to 90 nM; EC50 (HCMV): 2 to 7 nM; SIs fold lower compared to compound 18 ([1]; across viruses): 2- to 66 fold

Question: With `CCCCCCCCCCCCCCCCOCCCOP(=O)(O)CO[C@H](CO)Cn1cnc2c(=O)[nH]cnc21` [Compound 15, 3-(Hexadecyloxypropyl) ester of 9-(S)-[3-hydroxy-2-(phosphonomethoxy)propyl]hypoxanthine] as the compound, how does the “Cytotoxicity in HEL cells, cell morphology, MCC (minimum cytotoxic concentration)” value (HEL cells) read?
Answer: Its value is no less than 34 μM.

Question: What about the “Activity against herpesviruses and poxviruses” value [1] of the same compound?
Answer: The value was “totally inactive”.

Question: With `Nc1ccn(C[C@@H](CO)OCP(=O)(O)O)c(=O)n1.O.O` [Cidofovir, reference compound] as the compound, how does the “Cytotoxicity in HEL cells, cell morphology, MCC (minimum cytotoxic concentration)” value (HEL cells) read?
Answer: The value was greater than 317 μM.

Question: Which results are given for `CCCCCCCCCCCCCCCCOCCCOP(=O)(CCOCCn1cnc2c(=O)[nH]cnc21)OCCCOCCCCCCCCCCCCCCCC` [Compound 3, Bis 3-(hexadecyloxypropyl) ester of 9-[2-(phosphonomethoxy)ethyl]hypoxanthine]?
Answer: Cytotoxicity in HEL cells, cell morphology, MCC (minimum cytotoxic concentration) (HEL cells): ≥117 μM; Activity against herpesviruses and poxviruses [1]: inactive

Question: For `Nc1nc2c(ncn2C[C@@H](CO)OCP(=O)(O)O)c(=O)[nH]1` [(S)-HPMPG, 9-(S)-[3-hydroxy-2-(phosphonomethoxy)propyl]guanine, reference compound], which “Cytotoxicity in HEL cells, cell morphology, MCC (minimum cytotoxic concentration)” value (HEL cells) is on record?
Answer: The value was greater than 100 μM.

Question: What about the “Reported activity against HSV-1, HSV-2, VZV, CMV and vaccinia virus” value [2] of the same compound?
Answer: Its value is “active”.

Question: Which results are given for `CCCCCCCCCCCCCCCCOCCCOP(=O)(CO[C@H](CO)Cn1cnc2c(=O)[nH]c(N)nc21)OCCCOCCCCCCCCCCCCCCCC` [Compound 14, Bis 3-(hexadecyloxypropyl) ester of 9-(S)-[3-hydroxy-2-(phosphonomethoxy)propyl]guanine]?
Answer: Selectivity index (ratio CC50 to EC50) VZV YS/R (VZV TK- strain YS/R): >57; Fold difference of EC50 versus parent compound (S)-HPMPG, feline herpesvirus (Feline herpesvirus; printed as lower than parent): 157 fold; Fold difference of EC50 versus parent compound (S)-HPMPG, VACV [3]: 41 fold; Cytotoxicity in HEL cells, cell morphology, MCC (minimum cytotoxic concentration) (HEL cells): ≥22.6 μM; Fold difference of EC50 versus parent compound (S)-HPMPG, VZV (VZV; printed as lower than parent): 7 fold; Fold difference of EC50 versus parent compound (S)-HPMPG, HSV (HSV; printed as lower than parent): 15- to 40 fold; Fold difference of EC50 versus parent compound (S)-HPMPG, HCMV (HCMV; printed as lower than parent): 7 fold

Question: With `Nc1nc(O)c2ncn(COC(CO)CO)c2n1` [Ganciclovir, reference compound] as the compound, how does the “Cytotoxicity in HEL cells, cell morphology, MCC (minimum cytotoxic concentration)” value (HEL cells) read?
Answer: The value was greater than 394 μM.

Question: For `CCCCCCCCCCCCCCCCOCCCOP1(=O)CO[C@@H](Cn2cnc3c(=O)[nH]c(N)nc32)CO1` (stereo partly drawn) [Compound 18, 3-(Hexadecyloxypropyl) ester of 9-{[(5S)-2-hydroxy-2-oxido-1,4,2-dioxaphosphinan-5-yl]methyl}guanine], which “Selectivity index (ratio CC50 to EC50) VZV YS” value (VZV TK+ strain YS) is on record?
Answer: Its value is 19,000.

Question: What about the “Cytotoxicity in HEL cells, cell morphology, MCC (minimum cytotoxic concentration)” value (HEL cells) of the same compound?
Answer: The value was no less than 171.3 μM.

Question: What about the EC50 (VZV) of the same compound?
Answer: The EC50 was 1 to 2.5 nM.

Question: And the “Selectivity index VZV, range over strains” value (VZV; ratio CC50 to EC50)?
Answer: The value was 2700–19,000.

Question: And the “Selectivity index HSV, range over strains” value (HSV; ratio CC50 to EC50)?
Answer: The value was 211–559.

Question: What about the EC50 (HSV) of the same compound?
Answer: The EC50 was 7 to 90 nM.

Question: What about the EC50 (HCMV) of the same compound?
Answer: The EC50 was 2 to 7 nM.

Question: What about the “Selectivity index HCMV, range over strains” value (HCMV; ratio CC50 to EC50) of the same compound?
Answer: The value was 3800–9500.

Question: With `Nc1nc2c(ncn2C[C@H]2COP(=O)(O)CO2)c(=O)[nH]1` [(S)-cHPMPG, reference compound] as the compound, how does the “Cytotoxicity in HEL cells, cell morphology, MCC (minimum cytotoxic concentration)” value (HEL cells) read?
Answer: The value was greater than 100 μM.

Question: With `CCCCCCCCCCCCCCCCOCCCOP(=O)(CO[C@H](CO)Cn1cnc2c(=O)[nH]cnc21)OCCCOCCCCCCCCCCCCCCCC` [Compound 13, Bis 3-(hexadecyloxypropyl) ester of 9-(S)-[3-hydroxy-2-(phosphonomethoxy)propyl]hypoxanthine] as the compound, how does the “Cytotoxicity in HEL cells, cell morphology, MCC (minimum cytotoxic concentration)” value (HEL cells) read?
Answer: The value was no less than 23 μM.

Question: What about the “Activity against herpesviruses and poxviruses” value [1] of the same compound?
Answer: The value was “totally inactive”.

Question: For `Nc1nc2c(ncn2COCCO)c(=O)[nH]1` [Acyclovir, reference compound], which “Cytotoxicity in HEL cells, cell morphology, MCC (minimum cytotoxic concentration)” value (HEL cells) is on record?
Answer: Its value is greater than 444 μM.

Question: With `O=c1[nH]c(=O)n([C@H]2C[C@H](O)[C@@H](CO)O2)cc1/C=C/Br` [Brivudin, reference compound] as the compound, how does the EC50 (VZV TK+ strain Oka) read?
Answer: Its EC50 is 10 ± 10 nM.

Question: What about the EC50 ([3]; Orthopoxvirus vaccinia, Fibroblast, read-out: EC50 Vaccinia virus Lederle) of the same compound?
Answer: The EC50 was 15000 ± 17000 nM.

Question: And the “Cytotoxicity in HEL cells, cell morphology, MCC (minimum cytotoxic concentration)” value (HEL cells)?
Answer: The value was greater than 300 μM.

Question: What does the source list for `CCCCCCCCCCCCCCCCOCCCOP1(=O)CO[C@@H](Cn2cnc3c(=O)[nH]cnc32)CO1` (stereo partly drawn) [Compound 17, 3-(Hexadecyloxypropyl) ester of 9-{[(5S)-2-hydroxy-2-oxido-1,4,2-dioxaphosphinan-5-yl]methyl}hypoxanthine]?
Answer: Cytotoxicity in HEL cells, cell morphology, MCC (minimum cytotoxic concentration) (HEL cells): ≥7 μM; Activity against herpesviruses and poxviruses [1]: totally inactive
